In brackets after ≈: the same amount, converted by molar mass. Read-outs that look alike come from different tables or passages of the source.
Assays:
in vitro = conditions: mouse
[1] = system: macrophage cell line J774 (ATCC TIB-67)
[2] = system: Mycobacterium tuberculosis wild-type H37Rv strain (ATCC 27294); assay: microplate Alamar blue assay (MABA), anti-mycobacterial activity; assay type: cell-based
[3] = Mosmann's MTT cell viability (cytotoxicity) assay; conditions: mouse
[4] = system: Mycobacterium tuberculosis wild-type H37Rv strain; conditions: cited from earlier work; for pMIC (pMICExp): –Log of MIC on M. tuberculosis
MTB MDR strains = conditions: cited from earlier work
[5] = system: MTB wild-type H37Rv strain; design: method as in PMID 15591164; conditions: cited from earlier work
[6] = M. tuberculosis H37Rv, MABA, read-out: MIC
[7] = series D, –Log of MIC of Table 1, read-out: pMIC (pMICExp) (converted)

**Q.** What does the source list for `Oc1ccc(O)c(/C=N/Nc2ccnc3cc(Cl)ccc23)c1` [D04]?
**A.** viability at 48 h, 2.5 µg/mL (in vitro): 100%; viability at 48 h, 25 µg/mL (in vitro): 100%; viability at 48 h, 100 µg/mL (in vitro): 70%; Cell Viability (%)/Dose (µg/mL) 2.5 [1]: did not show a significant cytotoxic profile; MIC [2, 6]: 79.7 µM (≈ 25 µg/mL); MIC [2, 7]: 79.4 µM

**Q.** For `CC[C@@H](CO)NCCN[C@@H](CC)CO` [EMB, ethambutol], which viability at 48 h, 2.5 µg/mL [3] is on record?
**A.** 100%

**Q.** And the viability at 48 h, 25 µg/mL [3]?
**A.** 93%

**Q.** What about the viability at 48 h, 100 µg/mL [3] of the same compound?
**A.** 82%

**Q.** What about the MIC [2, 6] of the same compound?
**A.** 15.3 µM (≈ 3.13 µg/mL)

**Q.** Which “pMIC (pMICExp)” value ([4]; series A) does the source give for `NCCCCCCNc1ccnc2cc(Cl)ccc12` [A06] here?
**A.** 4.05

**Q.** Which “pMIC (pMICExp)” value ([4]; series A) does the source give for `[N-]=[N+]=NCCNc1ccnc2cc(Cl)ccc12` [A02] here?
**A.** 3.69

**Q.** For `Clc1ccc2c(N/N=C/c3ccccn3)ccnc2c1` [C07], which “pMIC (pMICExp)” value ([4]; series C) is on record?
**A.** 4.35

**Q.** With `COc1nc2ccc(Br)cc2cc1[C@@H](c1ccccc1)[C@@](O)(CCN(C)C)c1cccc2ccccc12` [bedaquiline] as the compound, how does the MIC (MTB MDR strains) read?
**A.** ≤ 0.5 µM

**Q.** What about the MIC [5] of the same compound?
**A.** ≤ 0.1 µM

**Q.** For `Oc1ccc(C=NNc2ccnc3cc(Cl)ccc23)cc1O` [D03], which viability at 48 h, 2.5 µg/mL (in vitro) is on record?
**A.** 78%

**Q.** What about the viability at 48 h, 25 µg/mL (in vitro) of the same compound?
**A.** 35%

**Q.** What about the viability at 48 h, 100 µg/mL (in vitro) of the same compound?
**A.** 72%

**Q.** And the MIC [2, 6]?
**A.** 319 µM (≈ 100 µg/mL)

**Q.** And the MIC [2, 7]?
**A.** 316 µM

**Q.** Which “pMIC (pMICExp)” value ([4]; series A) does the source give for `ClCCCNc1ccnc2cc(Cl)ccc12` [A13] here?
**A.** 3.71

**Q.** With `CC(C)Nc1ccnc2cc(Cl)ccc12` [A11] as the compound, how does the “pMIC (pMICExp)” value ([4]; series A) read?
**A.** 3.64

**Q.** Which results are given for `COc1ccc(C=NNc2ccnc3cc(Cl)ccc23)c(Cl)c1O` [D09]?
**A.** viability at 48 h, 2.5 µg/mL (in vitro): 80%; viability at 48 h, 25 µg/mL (in vitro): 55%; viability at 48 h, 100 µg/mL (in vitro): 48%; MIC [2, 6]: 17.3 µM (≈ 6.27 µg/mL); MIC [2, 7]: 16.2 µM

**Q.** With `NCCCCCCCCCCNc1ccnc2cc(Cl)ccc12` [A08] as the compound, how does the MIC ([4]; series A lead, H37Rv) read?
**A.** 9.3 µM (≈ 3.11 µg/mL)

**Q.** And the “pMIC (pMICExp)” value ([4]; series A)?
**A.** 5.03

**Q.** What does the source list for `COc1ccc(/C=N/Nc2ccnc3cc(Cl)ccc23)cc1OC` [D06]?
**A.** viability at 48 h, 2.5 µg/mL (in vitro): 65%; viability at 48 h, 25 µg/mL (in vitro): 8%; viability at 48 h, 100 µg/mL (in vitro): 20%; MIC [2, 6]: 7.3 µM (≈ 2.5 µg/mL); MIC [2, 7]: 7.24 µM

**Q.** With `Clc1ccc2c(N/N=C/c3c(Cl)cccc3Cl)ccnc2c1` [D01] as the compound, how does the viability at 48 h, 2.5 µg/mL (in vitro) read?
**A.** 100%

**Q.** And the viability at 48 h, 25 µg/mL (in vitro)?
**A.** 90%

**Q.** What about the viability at 48 h, 100 µg/mL (in vitro) of the same compound?
**A.** 86%

**Q.** What about the “Cell Viability (%)/Dose (µg/mL) 2.5” value [1] of the same compound?
**A.** did not show a significant cytotoxic profile

**Q.** What about the MIC [2, 6] of the same compound?
**A.** 143 µM (≈ 50 µg/mL)

**Q.** And the MIC [2, 7]?
**A.** 141 µM

**Q.** With `CCCNc1ccnc2cc(Cl)ccc12` [A10] as the compound, how does the “pMIC (pMICExp)” value ([4]; series A) read?
**A.** 3.64

**Q.** Which “pMIC (pMICExp)” value ([4]; series A) does the source give for `NCCCCCCCCNc1ccnc2cc(Cl)ccc12` [A07] here?
**A.** 4.69

**Q.** For `O=[N+]([O-])c1ccc(/C=N/Nc2ccnc3cc(Cl)ccc23)o1` [C01], which “pMIC (pMICExp)” value ([4]; series C) is on record?
**A.** 5.10

**Q.** For `CCCCNc1ccnc2cc(Cl)ccc12` [A12], which “pMIC (pMICExp)” value ([4]; series A) is on record?
**A.** 4.27

**Q.** What does the source list for `COc1cc(/C=N/Nc2ccnc3cc(Cl)ccc23)cc(OC)c1OC` [D08]?
**A.** viability at 48 h, 2.5 µg/mL (in vitro): 93%; viability at 48 h, 25 µg/mL (in vitro): 90%; viability at 48 h, 100 µg/mL (in vitro): 69%; MIC [2, 6]: 16.8 µM (≈ 6.25 µg/mL); MIC [2, 7]: 17 µM

**Q.** With `Clc1ccc2c(N/N=C/c3cccc(Br)c3)ccnc2c1` [B04] as the compound, how does the “pMIC (pMICExp)” value ([4]; series B) read?
**A.** 5.06

**Q.** With `CNc1ccnc2cc(Cl)ccc12` [A09] as the compound, how does the “pMIC (pMICExp)” value ([4]; series A) read?
**A.** 3.28

**Q.** With `CCCNCCNc1ccnc2cc(Cl)ccc12` [A03] as the compound, how does the “pMIC (pMICExp)” value ([4]; series A) read?
**A.** 3.42

**Q.** For `Clc1ccc2c(N/N=C/c3cccs3)ccnc2c1` [C04], which “pMIC (pMICExp)” value ([4]; series C) is on record?
**A.** 4.96

**Q.** Which viability at 48 h, 2.5 µg/mL (in vitro) does the source give for `COc1ccc(OC)c(/C=N/Nc2ccnc3cc(Cl)ccc23)c1` [D07] here?
**A.** 40%

**Q.** And the viability at 48 h, 25 µg/mL (in vitro)?
**A.** 22%

**Q.** What about the viability at 48 h, 100 µg/mL (in vitro) of the same compound?
**A.** 47%

**Q.** And the MIC [2, 6]?
**A.** 18.3 µM (≈ 6.25 µg/mL)

**Q.** And the MIC ([2]; read-out: pMIC (pMICExp))?
**A.** 18.2 µM (≈ 6.22 µg/mL)

**Q.** Which viability at 48 h, 2.5 µg/mL (in vitro) does the source give for `COc1cccc(/C=N/Nc2ccnc3cc(Cl)ccc23)c1OC` [D05] here?
**A.** 98%

**Q.** What about the viability at 48 h, 25 µg/mL (in vitro) of the same compound?
**A.** 97%

**Q.** And the viability at 48 h, 100 µg/mL (in vitro)?
**A.** 85%

**Q.** And the “Cell Viability (%)/Dose (µg/mL) 2.5” value [1]?
**A.** did not show a significant cytotoxic profile

**Q.** And the MIC [2, 6]?
**A.** 7.3 µM (≈ 2.5 µg/mL)

**Q.** And the MIC [2, 7]?
**A.** 7.24 µM

**Q.** With `Clc1ccc2c(N/N=C/c3ccco3)ccnc2c1` [C02] as the compound, how does the “pMIC (pMICExp)” value ([4]; series C) read?
**A.** 4.94

**Q.** For `Clc1ccc2c(N/N=C/c3ccc[nH]3)ccnc2c1` [C05], which “pMIC (pMICExp)” value ([4]; series C) is on record?
**A.** 4.94

**Q.** Which “pMIC (pMICExp)” value ([4]; series C) does the source give for `Clc1ccc2c(N/N=C/c3ccn[nH]3)ccnc2c1` [C06] here?
**A.** 4.94

**Q.** For `Clc1ccc2c(NCCNc3ccccc3)ccnc2c1` [A05], which “pMIC (pMICExp)” value ([4]; series A) is on record?
**A.** 3.77

**Q.** Which “pMIC (pMICExp)” value ([4]; series A) does the source give for `ClCCNc1ccnc2cc(Cl)ccc12` [A01] here?
**A.** 4.29

**Q.** With `O=[N+]([O-])c1ccc(/C=N/Nc2ccnc3cc(Cl)ccc23)s1` [C03] as the compound, how does the “pMIC (pMICExp)” value ([4]; series C) read?
**A.** 5.43

**Q.** With `Clc1ccc2c(N/N=C/c3ccc(Br)cc3)ccnc2c1` [B05] as the compound, how does the “pMIC (pMICExp)” value ([4]; series B) read?
**A.** 5.16

**Q.** What does the source list for `Oc1cccc(/C=N/Nc2ccnc3cc(Cl)ccc23)c1O` [D02]?
**A.** viability at 48 h, 2.5 µg/mL (in vitro): 83%; viability at 48 h, 25 µg/mL (in vitro): 40%; viability at 48 h, 100 µg/mL (in vitro): 83%; MIC [2, 6]: 79.7 µM (≈ 25 µg/mL); MIC [2, 7]: 79.4 µM

Source: article PMC5490409, “Anti-Mycobacterial Evaluation of 7-Chloro-4-Aminoquinolines and Hologram Quantitative Structure–Activity Relationship (HQSAR) Modeling of Amino–Imino Tautomers” (Pharmaceuticals, 2017)
